Laboratory results published in US20070093552A1, “Early insulin secretion stimulator” (priority 2003, published 2007).

How the values were obtained:
Assay type in all cases: in vivo, human
[1] = system: borderline diabetic patients; assay: Glucose tolerance test after administration of corosolic acid or placebo, blood insulin level (IRI) assayed (Test Example 1); conditions: 10 mg oral, 75 g glucose load, p<0.05, 31 patients
Experimental: A glucose tolerance test was performed after administration of corosolic acid or a placebo, in a double-blind crossover manner, and the blood insulin level (IRI: immunoreactive insulin) was assayed.
(§1) First, 31 borderline diabetic patients as test subjects were orally administered corosolic acid (10 mg, ≧99% purity) or a placebo, and blood was sampled immediately thereafter with the blood insulin level at that time designated as the value at 0 minutes. Immediately after blood sampling, 75 g of glucose was orally administered to each test subject to start a glucose tolerance test, and blood was sampled after periods of 30 minutes, 60 minutes, 90 minutes, 120 minutes and 180 minutes for measurement of the blood insulin level.
FIG. 1 is a graph showing the blood insulin levels during the glucose tolerance test. The horizontal axis represents time (min) after start of the glucose tolerance test, and the vertical axis represents IRI (μU/mL). In the graph, (a) is a case with administration of corosolic acid and (b) is a case with administration of the placebo.

[2] = system: test subjects; assay: Glucose tolerance test after administration of corosolic acid, banaba extract or placebo, blood glucose level assayed (Test Example 2); conditions: 10 mg oral, 75 g glucose load, p<0.05, 35 subjects
Experimental: The following test was conducted to confirm that corosolic acid has a hypoglycemic effect. A glucose tolerance test was performed after administration of corosolic acid, banaba extract or a placebo, in a double-blind crossover manner, and the blood glucose level (plasma glucose concentration) was assayed.
as §1, with “35” for “31 borderline diabetic patients as”, “purity), banaba extract (trade name: COROSOLIA M, product of Use Techno Corporation; administered at 10 mg of corosolic acid)” for “purity)”, “glucose” for “insulin”
FIG. 2 is a graph showing blood glucose levels during the glucose tolerance test. The horizontal axis represents time (min) after start of the glucose tolerance test, and the vertical axis represents plasma glucose concentration (mg/dL). In the graph, (c) is a case with administration of corosolic acid, (d) is a case with administration of banaba leaf extract and (e) is a case with administration of the placebo.

[3] = system: borderline diabetic patients; assay: Changes in blood glucose and blood insulin levels after fasting, absence of glucose load (Test Example 3); conditions: fasted, 10 mg; for I: blood insulin level: unit assumed
Experimental: Three borderline diabetic patients (person, person and person) were instructed to fast from 8:00 pm (to ensure absence of glucose load), and were administered a placebo once or the test agent (corosolic acid) once at 9:00 am on the following day, after which the changes in blood glucose levels and blood insulin levels were measured. The test subjects were given absolutely no information regarding placebo or test agent (crossover, double-blind). The corosolic acid was administered in a single 10 mg dose, and each test was conducted twice.
FIG. 3 is a graph showing changes in blood glucose levels with administration of corosolic acid and a placebo in the absence of a glucose load, and FIG. 4 is a graph showing changes in blood insulin levels with administration of corosolic acid and a placebo in the absence of a glucose load.

[4] = 120 minutes after start of glucose tolerance test

Compound: C[C@H]1[C@H](C)CC[C@]2(C(=O)O)CC[C@]3(C)C(=CC[C@@H]4[C@@]5(C)C[C@@H](O)[C@H](O)C(C)(C)[C@@H]5CC[C@]43C)[C@H]12 [corosolic acid]
- blood insulin level compared to placebo ([1]; 30 minutes after start of glucose tolerance test): significant increase
- blood insulin level compared to placebo [1, 4]: significant drop
- blood glucose level compared to placebo ([2]; 90 minutes after start of glucose tolerance test): significant decrease
- blood glucose level compared to placebo [2, 4]: significant decrease
- G: blood glucose level ([3]; test subject A, after 0 min): 110 mg/dL
- I: blood insulin level ([3]; test subject A, after 0 min): 9 µU/mL
- I: blood insulin level ([3]; test subject A, after 30 min): 6.9 µU/mL
- I: blood insulin level ([3]; test subject A, after 60 min): 6.6 µU/mL
- I: blood insulin level ([3]; test subject A, after 90 min): 5.9 µU/mL
- I: blood insulin level ([3]; test subject A, after 120 min): 6.6 µU/mL
- I: blood insulin level ([3]; test subject A, after 180 min): 5.1 µU/mL
- I: blood insulin level ([3]; test subject B, after 0 min): 2.5 µU/mL
- I: blood insulin level ([3]; test subject B, after 30 min): 2.6 µU/mL
- I: blood insulin level ([3]; test subject B, after 60 min): 3 µU/mL
- I: blood insulin level ([3]; test subject B, after 90 min): 2 µU/mL
- G: blood glucose level ([3]; test subject B, after 120 min): 150 mg/dL
- I: blood insulin level ([3]; test subject B, after 120 min): 3.4 µU/mL
- I: blood insulin level ([3]; test subject B, after 180 min): 2.4 µU/mL
- G: blood glucose level ([3]; test subject C, after 0 min): 90 mg/dL
- I: blood insulin level ([3]; test subject C, after 0 min): 4.5 µU/mL
- G: blood glucose level ([3]; test subject C, after 30 min): 90 mg/dL
- I: blood insulin level ([3]; test subject C, after 30 min): 4.1 µU/mL
- G: blood glucose level ([3]; test subject C, after 60 min): 88 mg/dL
- I: blood insulin level ([3]; test subject C, after 60 min): 3.9 µU/mL
- G: blood glucose level ([3]; test subject C, after 90 min): 86 mg/dL
- I: blood insulin level ([3]; test subject C, after 90 min): 4.9 µU/mL
- G: blood glucose level ([3]; test subject C, after 120 min): 86 mg/dL
- I: blood insulin level ([3]; test subject C, after 120 min): 4 µU/mL
- G: blood glucose level ([3]; test subject C, after 180 min): 81 mg/dL
- I: blood insulin level ([3]; test subject C, after 180 min): 4 µU/mL
